Measured values taken from ChEMBL document CHEMBL1140714, “In search of novel agents for therapy of tropical diseases and human immunodeficiency virus” (J Med Chem, 2008).
Active and inactive are the calls of the source. No cut-off for these calls is given here.

Legend:
[1] = tested on: Staphylococcus aureus; experiment: Antibacterial activity against Staphylococcus aureus assessed as inhibition of biofilm formation; type: functional, organism-based
[2] = tested on: Trypanosoma brucei brucei; experiment: Antitrypanosomal activity against Trypanosoma brucei brucei TC221; type: functional; conditions: read-out: ED50 (the source's name)
[3] = tested on: Plasmodium falciparum; experiment: Antiplasmodial activity against chloroquine-sensitive Plasmodium falciparum; type: functional, organism-based
[4] = Cytotoxicity against mouse J774.1 cells after 48 hrs; type: cell-based; conditions: read-out: ED50
[5] = tested on: Leishmania major; experiment: Antileishmanial activity against Leishmania major MHOM/IL/81/FE/BNI infected in BALB/c mouse; type: functional
[6] = tested on: Plasmodium falciparum; experiment: Antiplasmodial activity against chloroquine-sensitive Plasmodium falciparum NF54; type: functional, organism-based
[7] = tested on: Plasmodium falciparum; experiment: Antiplasmodial activity against Plasmodium falciparum NF54 infected mice (Mus musculus) after 72 hrs; type: functional, organism-based; conditions: NF54, 72 h
[8] = tested on: Human immunodeficiency virus 1; experiment: Antiviral activity against HIV1 BaL replication in PM1 cells; type: functional
[9] = tested on: Human immunodeficiency virus 1; experiment: Antiviral activity against HIV1 NL4/3 replication in PM1 cells; type: functional
[10] = tested on: Plasmodium falciparum; experiment: Antiplasmodial activity against Plasmodium falciparum NF54 after 72 hrs; type: functional, organism-based; conditions: NF54, 72 h
[11] = tested on: Plasmodium falciparum; experiment: Antiplasmodial activity against Plasmodium falciparum NF54 after 24 hrs; type: functional, organism-based; conditions: NF54, 24 h

| SMILES | Activity [1] | EC50 [2] | IC50 [3] | CC50 at 48 h [4] | ED50 [5] | other results |
| --- | --- | --- | --- | --- | --- | --- |
| CC[C@@H]1CC2(C[C@H](CC)N1)C(=O)N(Cc1ccccc1)C(=O)N2c1ccccc1 (some centres undefined) | inactive | 20.3 µM | Not Active | – | – | – |
| C=CCN1[C@H](c2ccccc2)C(C(=O)OC)C(=O)C(C(=O)OC)[C@@H]1c1ccccc1 (some centres undefined) | inactive | – | Not Active | > 100 µM | – | – |
| COC(=O)C1C(=O)C(C(=O)OC)[C@H](c2ccccn2)N(CCO)[C@@H]1c1ccccn1 (some centres undefined) | inactive | – | Not Active | 31.2 µM | >100 µM | – |
| Cc1cc(C2CCCCC2)n(O)c(=O)c1 [CICLOPIROX OLAMINE] | – | – | – | – | – | IC50 [6]: 8.2 µM |
| C=CCN1[C@H](c2ccccn2)C(C(=O)OC)C(=O)C(C(=O)OC)[C@@H]1c1ccccn1 (some centres undefined) | inactive | – | Not Active | > 100 µM | >100 µM | – |
| COC(=O)C1=C(O)C[C@H](c2ccccn2)N(Cc2ccc(OC)cc2)[C@@H]1c1ccccn1 | inactive | 0.43 µM | – | 29.9 µM | 30 µM | – |
| COC(=O)C1C(=O)[C@H](C(=O)OC)C(c2ccccn2)N[C@@H]1c1ccccn1 (some centres undefined) | inactive | – | Not Active | > 100 µM | >100 µM | – |
| COC(=O)C1=C(O)C[C@@H](c2ccccn2)N(Cc2ccccc2)[C@H]1c1ccccn1 | inactive | – | Not Active | 33.2 µM | 25.97 µM | – |
| COC(=O)C1=C(O)C[C@H](c2ccccn2)N(Cc2ccc(C)cc2)[C@@H]1c1ccccn1 | inactive | 0.47 µM | – | 34.9 µM | 83.83 µM | – |
| COC(=O)C1C(=O)C(C(=O)OC)[C@H](c2cccc([N+](=O)[O-])c2)N(Cc2ccc(OC)cc2)[C@@H]1c1cccc([N+](=O)[O-])c1 (some centres undefined) | inactive | – | Not Active | > 100 µM | >100 µM | – |
| COC(=O)C1C(=O)C(C(=O)OC)[C@H](c2cccc([N+](=O)[O-])c2)N(Cc2ccc(C)cc2)[C@@H]1c1cccc([N+](=O)[O-])c1 (some centres undefined) | inactive | – | Not Active | 49.8 µM | >100 µM | – |
| ON=C1CCN(CCCc2ccccc2)CC1 | inactive | – | – | – | – | IC50 ([3]; Plasmodium falciparum, read-out: IC50): 26 µM |
| COC(=O)C1=C(O)C[C@H](c2ccccn2)N(Cc2cccc(OC)c2)[C@@H]1c1ccccn1 | inactive | > 100 µM | – | > 100 µM | >100 µM | – |
| COC(=O)C1C(=O)C(C(=O)OC)[C@H](c2ccccn2)N(CCOCCO)[C@@H]1c1ccccn1 (some centres undefined) | inactive | – | Not Active | 38.5 µM | 65.04 µM | – |
| N=C(N)c1ccc(OCCCCCOc2ccc(C(=N)N)cc2)cc1 [PENTAMIDINE ISETHIONATE] | – | 0.0027 µM | – | – | – | – |
| CCOC(=O)C1C(=O)C(C(=O)OCC)[C@H](c2ccc([N+](=O)[O-])cc2)N(Cc2ccccc2)[C@@H]1c1ccc([N+](=O)[O-])cc1 (some centres undefined) | inactive | 2.72 µM | – | > 100 µM | – | IC50 [7]: 10.1 µM; Inhibition [8]: 20%; Inhibition [9]: 20% |
| CC[C@@H]1CC2(C[C@@H](CC)N1)C(=O)NC(=O)N2Cc1ccccc1 (some centres undefined) | inactive | > 100 µM | Not Active | > 100 µM | >100 µM | – |
| C[C@@H]1CC2(C[C@H](C)N1)C(=O)N(CCO)C(=O)N2Cc1ccccc1 (some centres undefined) | inactive | > 100 µM | Not Active | > 100 µM | >100 µM | – |
| C=CCN1[C@H](c2ccc([N+](=O)[O-])cc2)C(C(=O)OC)C(=O)C(C(=O)OC)[C@@H]1c1ccc([N+](=O)[O-])cc1 (some centres undefined) | inactive | 2.41 µM | Not Active | 50.3 µM | >100 µM | – |
| CCCC[C@@H]1CC2(C[C@H](CCCC)N1)C(=O)NC(=O)N2c1ccccc1 (some centres undefined) | inactive | 24.4 µM | Not Active | – | >100 µM | – |
| C[C@@H]1CC2(C[C@H](C)N1)C(=O)N(Cc1ccc([N+](=O)[O-])cc1)C(=O)N2Cc1ccccc1 (some centres undefined) | inactive | 3.74 µM | – | 42.4 µM | >100 µM | IC50 [10]: 14.6 µM |
| COC(=O)C1C(=O)C(C(=O)OC)[C@H](c2ccccn2)N(CCCO)[C@@H]1c1ccccn1 (some centres undefined) | inactive | 18.3 µM | Not Active | 32 µM | >100 µM | – |
| C=CCN1[C@@H](c2ccccn2)C(C(=O)OC)=C(O)C[C@H]1c1ccccn1 | inactive | – | – | 35 µM | 50 µM | IC50 [11]: 1.4 µM |
